Reference: PubChem BioAssay AID248 (DTP/NCI, 2004)
Several values for one entry are separate records, joined by “and”; a condition that tells them apart may be missing. Equal entries are not always repeated. Inconclusive results and toxic doses are left out. Cut-off read from the data, not from the text of the source: active = T/C of 150% or more; inactive = T/C below 125%.

System: L1210 leukemia ip in BDF1 mice, survival T/C
Assay: NCI In Vivo Anticancer Drug Screen. Data for tumor model L1210 Leukemia (intraperitoneal) in B6D2F1 (BDF1) mice
Settings: higher = longer survival
Outline: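 Tumor cells were implanted, animals were treated, and survival was followed. The result divides the treated measurement by the vehicle-control measurement.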

[1] = endpoint: mean survival time, dose: 100.0 mg/kg/injection, schedule: Q01DX009 (ip), vehicle: saline with Tween-80
[2] = endpoint: mean survival time, dose: 200.0 mg/kg/injection, schedule: Q01DX009 (ip), vehicle: saline with Tween-80

Measured: T/C

CN(C)c1nc(N(C)C)nc(N(C)C)n1
inactive: endpoint: mean survival time, dose: 2.5 mg/kg/injection, schedule: Q03HX040 (ip), vehicle: acetone 103 % of control | endpoint: mean survival time, dose: 4.8 mg/kg/injection, schedule: Q01DX Z (ip), vehicle: other 94 % of control | endpoint: mean survival time, dose: 5.0 mg/kg/injection, schedule: Q03HX040 (ip), vehicle: acetone 108 % of control | endpoint: mean survival time, dose: 5.0 mg/kg/injection, schedule: Q06HX020 (ip), vehicle: acetone 110 % of control | endpoint: mean survival time, dose: 5.5 mg/kg/injection, schedule: Q01DX009 (ip), vehicle: saline with Tween-80 104 % of control and 116 % of control | endpoint: mean survival time, dose: 8.5 mg/kg/injection, schedule: Q04DX002 (ip), vehicle: saline with Tween-80 93 % of control and 96 % of control | endpoint: mean survival time, dose: 9.4 mg/kg/injection, schedule: Q01DX009 (ip), vehicle: saline with Tween-80 92 % of control | endpoint: mean survival time, dose: 9.4 mg/kg/injection, schedule: Q01DX010 (ip), vehicle: saline 88 % of control and 92 % of control | endpoint: mean survival time, dose: 9.5 mg/kg/injection, schedule: Q01DX Z (ip), vehicle: other 100 % of control | endpoint: mean survival time, dose: 10.0 mg/kg/injection, schedule: Q03HX040 (ip), vehicle: acetone 106 % of control | endpoint: mean survival time, dose: 10.0 mg/kg/injection, schedule: Q06HX020 (ip), vehicle: acetone 110 % of control | endpoint: mean survival time, dose: 10.0 mg/kg/injection, schedule: Q12HX010 (ip), vehicle: acetone 100 % of control | endpoint: mean survival time, dose: 11.0 mg/kg/injection, schedule: Q01DX009 (ip), vehicle: saline with Tween-80 110 % of control and 118 % of control | endpoint: mean survival time, dose: 12.5 mg/kg/injection, schedule: Q01DX009 (ip), vehicle: saline with Tween-80 108 % of control | endpoint: mean survival time, dose: 17.0 mg/kg/injection, schedule: Q04DX002 (ip), vehicle: saline with Tween-80 100 % of control and 105 % of control | endpoint: mean survival time, dose: 18.8 mg/kg/injection, schedule: Q01DX009 (ip), vehicle: saline with Tween-80 103 % of control | endpoint: mean survival time, dose: 18.8 mg/kg/injection, schedule: Q01DX009 (ip), vehicle: saline 95 % of control and 92 % of control | endpoint: mean survival time, dose: 18.8 mg/kg/injection, schedule: Q01DX010 (ip), vehicle: saline 90 % of control and 91 % of control | endpoint: mean survival time, dose: 19.0 mg/kg/injection, schedule: Q01DX Z (ip), vehicle: other 101 % of control | endpoint: mean survival time, dose: 20.0 mg/kg/injection, schedule: Q01DX005 (ip), vehicle: acetone 101 % of control and 103 % of control | endpoint: mean survival time, dose: 20.0 mg/kg/injection, schedule: Q01DX009 (ip), vehicle: Klucel (hydroxypropylcellulose) (HPC) 99 % of control | endpoint: mean survival time, dose: 20.0 mg/kg/injection, schedule: Q01DX009 (ip), vehicle: saline with Tween-80 100 % of control | endpoint: mean survival time, dose: 20.0 mg/kg/injection, schedule: Q03HX040 (ip), vehicle: acetone 107 % of control | endpoint: mean survival time, dose: 20.0 mg/kg/injection, schedule: Q06HX020 (ip), vehicle: acetone 106 % of control | endpoint: mean survival time, dose: 20.0 mg/kg/injection, schedule: Q12HX010 (ip), vehicle: acetone 104 % of control | endpoint: mean survival time, dose: 25.0 mg/kg/injection, schedule: Q01DX009 (ip), vehicle: saline with Tween-80 98 % of control | endpoint: mean survival time, dose: 30.0 mg/kg/injection, schedule: Q03HX040 (ip), vehicle: saline 110 % of control | endpoint: mean survival time, dose: 34.0 mg/kg/injection, schedule: Q04DX002 (ip), vehicle: saline with Tween-80 100 % of control and 101 % of control | endpoint: mean survival time, dose: 37.5 mg/kg/injection, schedule: Q01DX009 (ip), vehicle: saline with Tween-80 98 % of control | endpoint: mean survival time, dose: 37.5 mg/kg/injection, schedule: Q01DX009 (ip), vehicle: saline 94 % of control and 95 % of control | endpoint: mean survival time, dose: 37.5 mg/kg/injection, schedule: Q01DX010 (ip), vehicle: saline 95 % of control and 91 % of control | endpoint: mean survival time, dose: 38.0 mg/kg/injection, schedule: Q01DX Z (ip), vehicle: other 96 % of control | endpoint: mean survival time, dose: 40.0 mg/kg/injection, schedule: Q01DX005 (ip), vehicle: acetone 100 % of control and 110 % of control | endpoint: mean survival time, dose: 40.0 mg/kg/injection, schedule: Q01DX009 (ip), vehicle: Klucel (hydroxypropylcellulose) (HPC) 101 % of control | endpoint: mean survival time, dose: 40.0 mg/kg/injection, schedule: Q01DX009 (ip), vehicle: saline with Tween-80 101 % of control | endpoint: mean survival time, dose: 40.0 mg/kg/injection, schedule: Q06HX020 (ip), vehicle: acetone 118 % of control | endpoint: mean survival time, dose: 40.0 mg/kg/injection, schedule: Q12HX010 (ip), vehicle: acetone 107 % of control | endpoint: mean survival time, dose: 50.0 mg/kg/injection, schedule: Q01DX001 (ip), vehicle: saline with Tween-80 97 % of control | endpoint: mean survival time, dose: 50.0 mg/kg/injection, schedule: Q01DX009 (ip), vehicle: saline with Tween-80 107 % of control | endpoint: mean survival time, dose: 50.0 mg/kg/injection, schedule: Q12HX010 (ip), vehicle: saline 96 % of control | endpoint: mean survival time, dose: 68.0 mg/kg/injection, schedule: Q04DX002 (ip), vehicle: saline with Tween-80 104 % of control and 105 % of control | endpoint: mean survival time, dose: 75.0 mg/kg/injection, schedule: Q01DX009 (ip), vehicle: saline with Tween-80 111 % of control | endpoint: mean survival time, dose: 75.0 mg/kg/injection, schedule: Q01DX009 (ip), vehicle: saline 94 % of control and 91 % of control | endpoint: mean survival time, dose: 75.0 mg/kg/injection, schedule: Q01DX010 (ip), vehicle: saline 98 % of control and 92 % of control | endpoint: mean survival time, dose: 80.0 mg/kg/injection, schedule: Q01DX005 (ip), vehicle: acetone 104 % of control and 106 % of control | endpoint: mean survival time, dose: 80.0 mg/kg/injection, schedule: Q01DX009 (ip), vehicle: Klucel (hydroxypropylcellulose) (HPC) 100 % of control | endpoint: mean survival time, dose: 80.0 mg/kg/injection, schedule: Q01DX009 (ip), vehicle: saline with Tween-80 105 % of control | endpoint: mean survival time, dose: 80.0 mg/kg/injection, schedule: Q12HX010 (ip), vehicle: acetone 115 % of control | endpoint: mean survival time, dose: 85.0 mg/kg/injection, schedule: Q01DX001 (ip), vehicle: other 94 % of control | endpoint: mean survival time, dose: 100.0 mg/kg/injection, schedule: Q01DX001 (ip), vehicle: saline with Tween-80 98 % of control | [1] 97 % of control | endpoint: mean survival time, dose: 100.0 mg/kg/injection, schedule: Q12HX010 (ip), vehicle: saline 98 % of control | endpoint: mean survival time, dose: 125.0 mg/kg/injection, schedule: Q01DX001 (ip), vehicle: other 109 % of control | endpoint: mean survival time, dose: 130.0 mg/kg/injection, schedule: Q01DX001 (ip), vehicle: other 101 % of control | endpoint: mean survival time, dose: 136.0 mg/kg/injection, schedule: Q04DX002 (ip), vehicle: saline with Tween-80 96 % of control and 98 % of control | endpoint: mean survival time, dose: 150.0 mg/kg/injection, schedule: Q01DX009 (ip), vehicle: saline with Tween-80 124 % of control | endpoint: mean survival time, dose: 150.0 mg/kg/injection, schedule: Q01DX009 (ip), vehicle: saline 93 % of control and 102 % of control | endpoint: mean survival time, dose: 160.0 mg/kg/injection, schedule: Q01DX009 (ip), vehicle: Klucel (hydroxypropylcellulose) (HPC) 107 % of control and 87 % of control | endpoint: mean survival time, dose: 160.0 mg/kg/injection, schedule: Q01DX009 (ip), vehicle: saline with Tween-80 109 % of control | endpoint: mean survival time, dose: 195.0 mg/kg/injection, schedule: Q01DX001 (ip), vehicle: other 94 % of control | endpoint: mean survival time, dose: 200.0 mg/kg/injection, schedule: Q01DX001 (ip), vehicle: saline with Tween-80 101 % of control | [2] 124 % of control | endpoint: mean survival time, dose: 240.0 mg/kg/injection, schedule: Q01DX009 (ip), vehicle: Klucel (hydroxypropylcellulose) (HPC) 86 % of control | endpoint: mean survival time, dose: 250.0 mg/kg/injection, schedule: Q01DX001 (ip), vehicle: other 100 % of control | endpoint: mean survival time, dose: 272.0 mg/kg/injection, schedule: Q04DX002 (ip), vehicle: saline with Tween-80 100 % of control and 105 % of control | endpoint: mean survival time, dose: 400.0 mg/kg/injection, schedule: Q01DX001 (ip), vehicle: saline with Tween-80 98 % of control | endpoint: mean survival time, dose: 500.0 mg/kg/injection, schedule: Q01DX001 (ip), vehicle: other 112 % of control | endpoint: median survival time, dose: 18.8 mg/kg/injection, schedule: Q01DX009 (ip), vehicle: saline 100 % of control and 114 % of control | endpoint: median survival time, dose: 37.5 mg/kg/injection, schedule: Q01DX009 (ip), vehicle: saline 100 % of control and 114 % of control | endpoint: median survival time, dose: 75.0 mg/kg/injection, schedule: Q01DX009 (ip), vehicle: saline 100 % of control and 111 % of control | endpoint: median survival time, dose: 150.0 mg/kg/injection, schedule: Q01DX009 (ip), vehicle: saline 111 % of control and 121 % of control

CCCC(/C=N\NC(=O)c1ccc[n+](C)c1)CC (stereo unspecified)
inactive: endpoint: mean survival time, dose: 50.0 mg/kg/injection, schedule: Q01DX009 (ip), vehicle: saline 103 % of control | endpoint: mean survival time, dose: 100.0 mg/kg/injection, schedule: Q01DX009 (ip), vehicle: saline 103 % of control | endpoint: mean survival time, dose: 200.0 mg/kg/injection, schedule: Q01DX009 (ip), vehicle: saline 100 % of control

CC(C)(C)OC(=O)N/N=C1\CC2CCC1C2 (stereo unspecified)
inactive: endpoint: mean survival time, dose: 100.0 mg/kg/injection, schedule: Q04DX003 (ip), vehicle: acetone 95 % of control

N#Cc1ccc(C#N)cc1
inactive: [1] 97 % of control | endpoint: mean survival time, dose: 100.0 mg/kg/injection, schedule: Q04DX003 (ip), vehicle: saline with Tween-80 92 % of control and 95 % of control | [2] 104 % of control | endpoint: mean survival time, dose: 200.0 mg/kg/injection, schedule: Q04DX003 (ip), vehicle: saline with Tween-80 106 % of control and 86 % of control | endpoint: mean survival time, dose: 400.0 mg/kg/injection, schedule: Q01DX009 (ip), vehicle: saline with Tween-80 115 % of control | endpoint: mean survival time, dose: 400.0 mg/kg/injection, schedule: Q04DX003 (ip), vehicle: saline with Tween-80 100 % of control and 104 % of control
